Converted amounts (≈) assume the structure as drawn. Like-named read-outs stand apart in the source and are kept apart here. Non-standard residues stand in square brackets, D forms with d. Residues, ends and D or L forms follow the SMILES beside them. No end group written: not given here.
How the values were obtained:
cancer cell lines = experiment: Anti-cancer assays, MTT, summary over the cancer cell lines; type: cell-based; conditions: X = preferred
in vitro [1] = type: cell-based, human; conditions: human, human red blood cells
fungal = experiment: Presently preferred antifungal peptides, selected from the MIC/MBC data; type: cell-based; conditions: X = preferred
Description: The peptide's “length” is the number of amino acid residues in the sequence.

in vitro [2] = conditions: human, WI38 normal lung fibroblast cells, WI-38 LD50, Table 26, valine substitution
[3] = test system: Escherichia coli ATCC 25922; experiment: Antimicrobial assay I, modified protocol (tryptic soy broth), MBC; conditions: minimum bactericidal concentration, Table 4
Description: (§1) The preparation of all media, stock solutions, and dilutions took place in a laminar flow hood to prevent contamination. Bacterial cells were freshly grown on antibiotic medium 2 agar slants (pH 7.0 at 25° C.). Bacteria were suspended and diluted in antibiotic medium 3 to about 10^4 cfu/ml and used as the inoculum. Sample solutions (100 μl/well) were added to plates according to the plate layout. Inoculum (100 μl/well) was added to achieve a final concentration of 5×10^3 cfu/ml. Negative controls received 100 μl saline and 100 μl growth medium. Positive controls received 100 μl saline and 100 μl inoculum. Bacterial plates were incubated at 37° C. for 24 hours.
(§2) However, the data for Table 4 were obtained with a modified protocol wherein the medium was tryptic soy broth, inocolum strength was approximately 10^4 CFU per ml, and values determined were minimum bactericidal concentrations (MBC) or minimum fungicidal concentrations (MFC).
(§3) MBC or MFC values are in μg/mL. E. coli is Escherichia coli ATCC accession number 25922; P. aerug is Pseudomonas aeruginosa ATCC accession number 27853, S. aur. is Stapholococcus aureus ATCC accession number 25923; Candida is Candida albicans ATCC accession number 10231.

[4] = test system: Pseudomonas aeruginosa ATCC 27853; experiment: as above; conditions: minimum bactericidal concentration, Table 4
Description: as §1, §2, §3

[5] = test system: Stapholococcus aureus ATCC 25923; experiment: as above; conditions: minimum bactericidal concentration, Table 4
[6] = test system: Candida albicans ATCC 10231; experiment: Antimicrobial assay I, modified protocol (tryptic soy broth), MFC; conditions: minimum fungicidal concentration, Table 4
[7] = test system: MCF7 line of breast cancer cells
[8] = test system: Pseudomonas aeruginosa ATCC 9027; experiment: Antimicrobial assay I, MIC by OD measurement; type: cell-based
[9] = test system: human red blood cells (RBC); experiment: in vitro; type: cell-based; conditions: Table 27
WI38 = conditions: Table 27
[10] = pH 7, Table 26, valine substitution, read-out: Hemolysis RBC LD50
[11] = pH 7, Table 27, read-out: Hemolysis (LD50)

| Molecule | Anti-cancer (preferred peptide) (cancer cell lines) | HC50 at 1 h (in vitro [1]; [10]) | Anti-fungal (preferred peptide) (fungal) | CC50 at 24 h (in vitro [2]) | MBC E. coli A.25922 [3] | MBC P. aerug A.27853 [4] | MBC S. aur A.25923 [5] | MFC Candida A.10231 [6] | MCF7 LD50 ([7]; agent alone) | Active agent LD50 on MCF7 cells: Total conc. ([7]; peptide plus tamoxifen concentration at LD50) | Active agent LD50 on MCF7 cells: Tamox. conc. ([7]; tamoxifen concentration at LD50 (peptide with tamoxifen; tamoxifen alone in its own line)) | P. aerug (MIC) [8] | Hemolysis (LD50) [9] | WI38 LD50 (WI38) | HC50 at 1 h (in vitro [1]; [11]) |
| --- | --- | --- | --- | --- | --- | --- | --- | --- | --- | --- | --- | --- | --- | --- | --- |
| FAKLLAKALKKLL-NH2 [compound 55] | X (Preferred anticancer peptides can be selected as having LD50 values of less than or equal to about 25 μg/ml) | 20 µg/mL | X (Preferred antifungal peptides can be selected as having MIC or MBC values of less than or equal to about 25 μg/ml) | 32 mg/L | 4 mg/L | 10 mg/L | 4 mg/L | 25 mg/L |  |  |  |  |  |  |  |
| FAKLLALALKLKL-NH2 [compound 94] | X (Preferred anticancer peptides can be selected as having LD50 values of less than or equal to about 25 μg/ml) |  |  |  | >50 mg/L | >50 mg/L | >50 mg/L | >50 mg/L |  |  |  |  |  |  |  |
| FAKALAKLAKKLL-NH2 [compound 92] | X (Preferred anticancer peptides can be selected as having LD50 values of less than or equal to about 25 μg/ml) |  | X (Preferred antifungal peptides can be selected as having MIC or MBC values of less than or equal to about 25 μg/ml) |  | 40 mg/L | 25 mg/L | 15 mg/L | 25 mg/L |  |  |  |  |  |  |  |
| CC/C(=C(\c1ccccc1)c1ccc(OCCN(C)C)cc1)c1ccccc1 [Tamoxifen] |  |  |  |  |  |  |  |  | 20 µg/mL | 20 µg/mL | 20 µg/mL |  |  |  |  |
| FALAAKALKKLAKKLKKLAKKAL-NH2 [compound 23] | X (Preferred anticancer peptides can be selected as having LD50 values of less than or equal to about 25 μg/ml) |  |  |  | 15 mg/L | 25 mg/L | 30 mg/L | >50 mg/L |  |  |  |  |  |  |  |
| FAKKLAKLALKLAKL-NH2 [compound 44] | X (Preferred anticancer peptides can be selected as having LD50 values of less than or equal to about 25 μg/ml) |  |  |  | 10 mg/L | 55 mg/L | 30 mg/L | >50 mg/L |  |  |  |  |  |  |  |
| FALALKALKKALKKLKKALKKAL-OH [compound 1] | X (Preferred anticancer peptides can be selected as having LD50 values of less than or equal to about 25 μg/ml) | 20 µg/mL |  | 27 mg/L | 25 mg/L | 30 mg/L | 25 mg/L | >50 mg/L |  |  |  |  |  |  |  |
| FAKKLAKKLAKLL-NH2 [compound 75] | X (Preferred anticancer peptides can be selected as having LD50 values of less than or equal to about 25 μg/ml) |  |  |  | 40 mg/L | 30 mg/L | >55 mg/L | 30 mg/L |  |  |  |  |  |  |  |
| CC(C)C[C@H](NC(=O)[C@H](C)NC(=O)[C@H](CC(C)C)NC(=O)[C@H](C)NC(=O)[C@H](CC(C)C)NC(=O)[C@H](CCCCN)NC(=O)[C@H](C)NC(=O)[C@H](CC(C)C)NC(=O)[C@H](CCCCN)NC(=O)[C@H](CCCCN)NC(=O)[C@H](C)NC(=O)[C@H](CC(C)C)NC(=O)[C@H](CCCCN)NC(=O)[C@H](C)NC(=O)[C@H](CC(C)C)NC(=O)[C@H](CCCCN)NC(=O)[C@H](CCCCN)NC(=O)[C@H](C)NC(=O)[C@@H](N)Cc1ccccc1)C(N)=O [compound 36] | X (Preferred anticancer peptides can be selected as having LD50 values of less than or equal to about 25 μg/ml) | 12 µg/mL |  | 19 mg/L (≈ 9.32 µM) | 30 mg/L (≈ 14.7 µM) | 15 mg/L (≈ 7.36 µM) | 10 mg/L (≈ 4.91 µM) | >40 mg/L |  |  |  |  |  |  |  |
| FAKKLAKKLKKLAKKLAKKWKL-NH2 [compound 70] | X (Preferred anticancer peptides can be selected as having LD50 values of less than or equal to about 25 μg/ml) |  |  |  | 40 mg/L | 30 mg/L | 40 mg/L | >50 mg/L |  |  |  |  |  |  |  |
| FAKLLAKLAKKLL-NH2 [compound 43] | X (Preferred anticancer peptides can be selected as having LD50 values of less than or equal to about 25 μg/ml) | 20 µg/mL | X (Preferred antifungal peptides can be selected as having MIC or MBC values of less than or equal to about 25 μg/ml) | 25 mg/L | 8 mg/L | 15 mg/L | 4 mg/L | 15 mg/L |  |  |  | 100 mg/L | 20 µg/mL | 25 µg/mL |  |
| FAKKALKALKKL-NH2 [compound 47] | X (Preferred anticancer peptides can be selected as having LD50 values of less than or equal to about 25 μg/ml) |  |  |  | >50 mg/L | >50 mg/L | >50 mg/L | >50 mg/L |  |  |  |  |  |  |  |
| FALALKKALKALKKAL-NH2 [compound 34] | X (Preferred anticancer peptides can be selected as having LD50 values of less than or equal to about 25 μg/ml) |  | X (Preferred antifungal peptides can be selected as having MIC or MBC values of less than or equal to about 25 μg/ml) |  | 15 mg/L | 15 mg/L | 40 mg/L | >40 mg/L |  |  |  |  |  |  |  |
| FALALKALKKLKKALKKAL-OH [27B] | X (Preferred anticancer peptides can be selected as having LD50 values of less than or equal to about 25 μg/ml) |  | X (Preferred antifungal peptides can be selected as having MIC or MBC values of less than or equal to about 25 μg/ml) |  | 40 mg/L | 10 mg/L | >40 mg/L | >40 mg/L |  |  |  |  |  |  |  |
| FAKLLAKLAKKVL-NH2 [compound 124] | X (Preferred anticancer peptides can be selected as having LD50 values of less than or equal to about 25 μg/ml) | 55 µg/mL | X (Preferred antifungal peptides can be selected as having MIC or MBC values of less than or equal to about 25 μg/ml) | 21 mg/L | 10 mg/L | 40 mg/L | 8 mg/L | 15 mg/L |  |  |  | 100 mg/L |  | 21 µg/mL | 300 µg/mL |
| FALAKLAKKAKAKLKKALKAL-NH2 [compound 26] | X (Preferred anticancer peptides can be selected as having LD50 values of less than or equal to about 25 μg/ml) |  | X (Preferred antifungal peptides can be selected as having MIC or MBC values of less than or equal to about 25 μg/ml) |  | >80 mg/L | >40 mg/L | >40 mg/L | >50 mg/L |  |  |  |  |  |  |  |
| CC(C)C[C@H](NC(=O)[C@H](C)NC(=O)[C@H](CCCCN)NC(=O)[C@H](CCCCN)NC(=O)[C@H](CC(C)C)NC(=O)[C@H](C)NC(=O)[C@H](CCCCN)NC(=O)[C@H](CCCCN)NC(=O)[C@H](CC(C)C)NC(=O)[C@@H](CCCCN)NC(=O)[C@@H](CCCCN)NC(=O)[C@H](CC(C)C)NC(=O)[C@H](C)NC(=O)[C@H](CCCCN)NC(=O)[C@H](CCCCN)NC(=O)[C@H](CC(C)C)NC(=O)[C@H](C)NC(=O)[C@H](CCCCN)NC(=O)[C@H](CC(C)C)NC(=O)[C@H](C)NC(=O)[C@H](CC(C)C)NC(=O)[C@H](C)NC(=O)[C@@H](N)Cc1ccccc1)C(=O)O [compound 37] (H-FALALKALKKAL[dK][dK]LKKALKKAL-OH; N-terminus assumed) | X (Preferred anticancer peptides can be selected as having LD50 values of less than or equal to about 25 μg/ml) |  |  |  | 8 mg/L (≈ 3.15 µM) | 8 mg/L (≈ 3.15 µM) | 40 mg/L (≈ 15.8 µM) | >50 mg/L |  |  |  |  |  |  |  |
| VAKLLAKLAKKLL-NH2 [compound 48] | X (Preferred anticancer peptides can be selected as having LD50 values of less than or equal to about 25 μg/ml) | 130 µg/mL | X (Preferred antifungal peptides can be selected as having MIC or MBC values of less than or equal to about 25 μg/ml) | 160 mg/L | 8 mg/L | 25 mg/L | 4 mg/L | 10 mg/L |  |  |  | 5 mg/L |  | 160 µg/mL | 200 µg/mL |

Source: patent US20050209157A1, “Short bioactive peptides and methods for their use” (priority 2001, published 2005)
